Where two headings read alike, the source gives them in different places.
Key:
[1] = Phase I metabolic stability in rat liver microsomes (RLMs); assay type: in vitro ADME, Sprague-Dawley rats; conditions: RLM; for Remaining rate (NCF = 60 min): buffer instead of NADPH regeneration system; for Remaining rate (T = 60 min): with NADPH; for CLint scaled at 1 µM / half-life at 1 M / microsomal CLint at 1 µM: Sprague-Dawley, rat, liver microsomes, pH 7.4; for microsomal CLint at 1 µM: read-out: CLint (mic)
Protocol: Phase I metabolic stability of the test compounds in liver microsomes of CD-1 mice (MLMs), Sprague-Dawley rats (RLMs), beagle dogs (DLMs), cynomolgus monkeys (CLMs), and humans (HLMs) was evaluated.
The animal and human liver microsomes used in the test system were purchased from Xenotech, Corning, or other qualified suppliers and stored in a freezer at a temperature below −60° C. prior to use.
The test samples and control compounds were separately incubated with animal and human liver microsomes at 37±1° C. for a period of incubation time up to 60 min. The samples were removed at the indicated time points, and the reaction was stopped with acetonitrile or other organic solvents containing an internal standard. After centrifugation, the resulting supernatants were assayed by liquid chromatography-tandem mass spectrometry (LC-MS/MS).
73.21 g of dipotassium hydrogenphosphate trihydrate and 10.78 g of potassium dihydrogenphosphate were dissolved in 4000 mL of ultrapure water. The solution was adjusted to pH 7.40±0.10 with 10% phosphoric acid or 1 M potassium hydroxide to make a final concentration of 100 mM.
The test sample powder was prepared into a stock solution at a certain concentration with DMSO or other organic solvents, which was then further diluted with a proper organic solvent.
Microsomes of each species were diluted into a 2× working solution with a 100 mM potassium phosphate buffer. The final concentration of the microsomes in the reaction system was 0.5 mg/mL.
An appropriate amount of nicotinamide adenine dinucleotide phosphate (NADP) and isocitric acid (ISO) powder was weighed out, dissolved in a magnesium chloride solution, and shaken and mixed well. An appropriate amount of isocitrate dehydrogenase (IDH) was added, and the mixture was mixed well by gently turning upside down. The final concentrations in the reaction system were: 1 mM NADP, 1 mM magnesium chloride, 6 mM ISO, and 1 unit/mL IDH.
Incubation was performed in a 96-well plate. Eight incubation plates were prepared and designated T0, T5, T15, T30, T45, T60, Blank60, and NCF60, respectively. The first 6 plates corresponded to reaction time points of 0, 5, 15, 30, 45, and 60 min, respectively. No test sample or control compound was added to the Blank60 plate, and samples were taken after 60 min of incubation. In the NCF60 plate, incubation was performed for 60 min using the potassium phosphate buffer instead of the NADPH regeneration system solution. Three replicates were made for samples in all conditions.
The microsomes and the test sample or control compound were mixed, and then the incubation plates Blank60, T5, T15, T30, T45, and T60 except for TO and NCF60 were placed in a 37° C. water bath for pre-incubation for about 10 min. In the incubation plate TO, a stop solution was first added, followed by addition of the NADPH regeneration system working solution, and 98 μL of the potassium phosphate buffer was added to each sample well of the incubation plate NCF60 to initiate the reaction. After the pre-incubations of the incubation plates Blank60, T5, T15, T30, T45, and T60 were completed, 98 μL of the NADPH regeneration system working solution was added to each sample well to initiate the reaction. The reaction temperature was 37±1° C., the final volume of the reaction was 200 μL, and the reaction system included 0.5 mg/mL microsomes, […], 1 mM NADP, 6 mM ISO, and 1 unit/mL IDH.
At 5 min, 15 min, 30 min, 45 min, and 60 min, a cold stop solution containing an internal standard was added to the reaction plate to stop the reaction.
All the reaction plates after the reaction was stopped were shaken well and centrifuged at 3220×g at 4° C. for 20 min. After the supernatant was diluted according to a certain proportion, LC-MS/MS analysis was performed.
Sample analysis was performed by the liquid chromatography-tandem mass spectrometry (LC-MS/MS) method without standard curves and quality control samples. […]

[2] = Pharmacokinetic test in mice (IV and PO); assay type: in vivo, BALB/c mice; conditions: for Cmax / AUC(0-inf) / AUC(0-t) / MRT inf / Vd / Tmax: BALB/c, mouse, plasma; for MRT inf: read-out: MRT(0-∞); for Vd: read-out: Vz
Method in brief: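 BALB/c mice (3 per group) given single IV or intragastric doses; blood sampled orbitally at 0.25–24 h into K2-EDTA tubes for plasma. Concentrations measured by LC-MS/MS; parameters from non-compartmental analysis with linear-log trapezoidal method.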

[3] = po, 10 mg/kg, read-out: C0/Cmax
[4] = po, 100 mg/kg, read-out: C0/Cmax
[5] = mice, PO 30 mg/kg (Cmax), read-out: C0/Cmax

SMILES | Remaining rate (NCF = 60 min) [1] [%] | Remaining rate (T = 60 min) [1] [%] | CLint scaled at 1 µM [1] [mL/min/kg] | half-life at 1 M [1] [min] | microsomal CLint at 1 µM [1] [µL/min/mg] | Cmax [2, 3] [µM] | Cmax [2, 4] [µM] | AUC(0-inf) ([2]; mice, IV 2 mg/kg) [µM·h] | AUC(0-t) ([2]; mice, IV 2 mg/kg) [µM·h] | Cmax ([2]; mice, IV 2 mg/kg (C0)) [µM] | MRT inf ([2]; mice, IV 2 mg/kg) [h] | Vd ([2]; mice, IV 2 mg/kg) [L/kg] | AUC(0-inf) ([2]; mice, PO 10 mg/kg) [µM·h] | AUC(0-t) ([2]; mice, PO 10 mg/kg) [µM·h] | Tmax ([2]; mice, PO 10 mg/kg) [h] | MRT inf ([2]; mice, PO 10 mg/kg) [h] | CLz ([2]; mice, IV 2 mg/kg) [L/h/kg] | t½z ([2]; mice, IV 2 mg/kg) [h] | F ([2]; mice, PO 10 mg/kg) [%] | t½z ([2]; mice, PO 10 mg/kg) [h] | also measured
CC(F)(F)C(=O)N[C@@H]1CCCC[C@H]1N1Cc2ccc(-c3nnc(C(F)F)o3)cc2S1(=O)=O [Compound 1] | 100.2 | 68.9 | 25.8 | 96.6 | 14.4 | 8.97 | 30.5 | 9.88 | 9.88 | 4.52 | 2.19 | 0.684 | 45.2 | 45.2 | 1 | 3.35 | 0.426 | 1.062 | 91.46 | 0.919 | AUC(0-inf) ([2]; mice, PO 30 mg/kg): 73.1 µM·h; AUC(0-t) ([2]; mice, PO 30 mg/kg): 73.1 µM·h; Tmax ([2]; mice, PO 30 mg/kg): 0.417 h; Cmax [2, 5]: 17.5 µM; MRT inf ([2]; mice, PO 30 mg/kg): 3.65 h; AUC(0-inf) ([2]; mice, PO 100 mg/kg): 171 µM·h; AUC(0-t) ([2]; mice, PO 100 mg/kg): 171 µM·h; Tmax ([2]; mice, PO 100 mg/kg): 1.5 h; MRT inf ([2]; mice, PO 100 mg/kg): 3.71 h; F ([2]; mice, PO 30 mg/kg): 49.31%; t½z ([2]; mice, PO 30 mg/kg): 0.918 h; F ([2]; mice, PO 100 mg/kg): 34.72%; t½z ([2]; mice, PO 100 mg/kg): 1.292 h
O=C(N[C@@H]1CCCC[C@H]1N1Cc2ccc(-c3nnc(C(F)F)o3)cc2S1(=O)=O)C(F)F [Compound 2] | 93.0 | 76.4 | < 17.3 | > 145 | < 9.6 | 13.9 | 87.9 | 12.6 | 12.6 | 6.75 | 2.35 | 0.55 | 77.8 | 77.7 | 0.5 | 4.5 | 0.36 | 1.01 | 123.92 | 1.62 | AUC(0-inf) ([2]; mice, PO 30 mg/kg): 182 µM·h; AUC(0-t) ([2]; mice, PO 30 mg/kg): 182 µM·h; Tmax ([2]; mice, PO 30 mg/kg): 0.67 h; Cmax [2, 5]: 35 µM; MRT inf ([2]; mice, PO 30 mg/kg): 3.66 h; AUC(0-inf) ([2]; mice, PO 100 mg/kg): 601 µM·h; AUC(0-t) ([2]; mice, PO 100 mg/kg): 601 µM·h; Tmax ([2]; mice, PO 100 mg/kg): 1.33 h; MRT inf ([2]; mice, PO 100 mg/kg): 4.33 h; F ([2]; mice, PO 30 mg/kg): 96.93%; t½z ([2]; mice, PO 30 mg/kg): 0.87 h; F ([2]; mice, PO 100 mg/kg): 95.71%; t½z ([2]; mice, PO 100 mg/kg): 0.81 h
O=C(N[C@H]1[C@H](N2Cc3ccc(-c4nnc(C(F)F)o4)cc3S2(=O)=O)CCCC1(F)F)C(F)F [Compound 61] | 88.24 | 72.95 | 19.4 | 128 | – | 12.6 | – | 15.4 | 12.8 | 4.52 | 4.38 | 1.18 | 73.4 | 57 | 1 | 5.3 | 0.261 | 3.12 | 89.2 | 3.551 | –
